According to patent US10981932B2, “Macrocyclic indole derivatives” (Bayer Aktiengesellschaft, priority 2016, dated 2021):
Counter-ions that a name gives are not always drawn. Like-named read-outs stand apart in the source and are kept apart here. Each block holds one compound with its values, some of them ahead of it.

Key:
[1] = rcm bond, Grubbs 2nd generation catalyst
SUDHL5 [2] = assay: Induction of caspase-3/7 activity (Caspase-Glo 3/7), SUDHL5; type: cell-based; settings: caspase-3/7 induction, SUDHL5 cells, 3 h treatment, median
How it was run: (§1)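 Caspase-Glo 3/7 luminescence measured after 3 h compound exposure at 37 °C in SUDHL10 and SUDHL5 cells. EC50 values come from background-corrected signals, with curve bottom set to 1 and plateau set to maximal induction by the reference compound.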

OPM2 = assay: Anti-proliferative effect (CellTiter-Glo, 72 h), OPM2; type: cell-based; settings: OPM2 cells, median, read-out: IC50 antiproliferation assay OPM2 [M] (median)
How it was run: (§2)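 Anti-proliferative activity is derived from ATP-based luminescence (CellTiter-Glo) in cells exposed to compound for 72 h at 37 °C, set against a time zero plate read at seeding.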

SUDHL5 [3] = assay: Anti-proliferative effect (CellTiter-Glo, 72 h), SUDHL5; type: cell-based; settings: SUDHL5 cells, antiproliferation, 72 h incubation, median, read-out: Antiproli SUDHL5 [M] (median)
How it was run: as §2

SUDHL5 [4] = assay: Induction of cytotoxicity (CellTiter-Glo, 5 h), SUDHL5
SUDHL10 [5] = assay: Anti-proliferative effect (CellTiter-Glo, 72 h), SUDHL10; type: cell-based; settings: SUDHL10 cells, antiproliferation, 72 h incubation, median, read-out: Antiproli SUDHL10 [M] (median)
How it was run: as §2

SUDHL10 [6] = assay: Induction of caspase-3/7 activity (Caspase-Glo 3/7), SUDHL10; type: cell-based; settings: caspase-3/7 induction, SUDHL10 cells, 3 h treatment, median
How it was run: as §1

MV-4-11 = assay: Anti-proliferative effect (CellTiter-Glo, 72 h), MV-4-11; type: cell-based; settings: MV-4-11 cells, median, read-out: IC50 antiproliferation assay MV-4-11 [M] (median)
How it was run: as §2

MCL-1 = MCL-1 (Homo sapiens, UniProt Q07820); assay: Protein-protein interaction assay MCL-1/Noxa BH3 peptide (MCL-1 assay), TR-FRET; type: binding; settings: MBP-MCL-1 / Noxa BH3-derived peptide, median
Sequence of MCL-1 (Q07820 whole entry): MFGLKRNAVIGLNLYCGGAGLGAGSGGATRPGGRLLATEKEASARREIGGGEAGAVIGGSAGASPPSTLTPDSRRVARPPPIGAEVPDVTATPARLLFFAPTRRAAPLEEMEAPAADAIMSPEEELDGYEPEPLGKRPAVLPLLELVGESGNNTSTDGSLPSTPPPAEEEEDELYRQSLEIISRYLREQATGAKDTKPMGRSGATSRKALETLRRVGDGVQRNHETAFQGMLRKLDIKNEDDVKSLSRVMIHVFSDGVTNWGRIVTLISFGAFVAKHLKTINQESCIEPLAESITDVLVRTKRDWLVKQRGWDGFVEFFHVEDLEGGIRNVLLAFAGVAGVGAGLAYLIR
How it was run: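 MBP-MCL-1 (1 nM final) was preincubated 10 min at 22 °C with compounds (11 concentrations, 0.1 nM–20 μM, duplicates) in Tris pH 7 buffer with NaCl, KF, Tween-20, DTT and BGG. After 1 h at 22 °C in the dark plus overnight at 4 °C, anti-MBP Eu-cryptate/streptavidin-XL665 TR-FRET was read; IC50 came from a 4-parameter fit.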

SUDHL10 [7] = assay: Induction of cytotoxicity (CellTiter-Glo, 5 h), SUDHL10
A2780 = assay: Anti-proliferative effect (CellTiter-Glo, 72 h), A2780; type: cell-based; settings: A2780 cells, median, read-out: IC50 antiproliferation assay A2780 [M] (median)
How it was run: as §2

[8] = read-out: Cytotox SUDHL5 [M] (median), SUDHL5 cells, cytotoxicity induction, CellTiter-Glo, 5 h incubation, median
[9] = read-out: Cytotox SUDHL10 [M] (median), SUDHL10 cells, cytotoxicity induction, CellTiter-Glo, 5 h incubation, median

Compound: CCOC(=O)c1c(CCCOc2cccc3ccccc23)c2cccc3c2n1CC=CCN(Cc1ccccc1)c1c-3c(C)nn1C
ring closure, yield of all isomers ([1]; from C=CCN(Cc1ccccc1)c1c(-c2cccc3c(CCCOc4cccc5ccccc45)c(C(=O)OCC)n(CC=C)c23)c(C)nn1C, toluene, 6.11 mM, 90.0 °C, 5.5 h): 96.7%

Compound: CCOC(=O)c1c(CCCOc2cccc3ccccc23)c2cccc3c2n1CC=CCOCc1c-3c(COC(C)C)nn1C
ring closure, yield of all isomers ([1]; from C=CCOCc1c(-c2cccc3c(CCCOc4cccc5ccccc45)c(C(=O)OCC)n(CC=C)c23)c(COC(C)C)nn1C, dichloromethane, 77.5 mM, 25.0 °C, 24.0 h): 89.2%

Compound: CCOC(=O)c1c(CCCO[Si](C)(C)C(C)(C)C)c2cccc3c2n1CC=CCOCc1c-3c(C)nn1C (mixture of isomers)
ring closure, yield of all isomers ([1]; from C=CCOCc1c(-c2cccc3c(CCCO[Si](C)(C)C(C)(C)C)c(C(=O)OCC)n(CC=C)c23)c(C)nn1C, dichloromethane, 48.0 mM, 25.0 °C, 16.0 h): 52.7%

Compound: CCOC(=O)c1c(CCCOc2cccc3ccccc23)c2cccc3c2n1CC=CCOCCc1c-3c(C)nn1C (mixture of isomers)
ring closure, yield of all isomers ([1]; from C=CCOCCc1c(-c2cccc3c(CCCOc4cccc5ccccc45)c(C(=O)OCC)n(CC=C)c23)c(C)nn1C, dichloromethane, 50.9 mM, 25.0 °C, 48.0 h): 47.5%

Compound: CCOC(=O)c1c(CCCOc2cccc3ccccc23)c2cccc3c2n1CC=CCOCc1c-3c(CN2CCOCC2)nn1C (mixture of isomers)
ring closure, yield of all isomers ([1]; from C=CCOCc1c(-c2cccc3c(CCCOc4cccc5ccccc45)c(C(=O)OCC)n(CC=C)c23)c(CN2CCOCC2)nn1C, dichloromethane, 79.5 mM, 25.0 °C, 48.0 h): 14.2%

Compound: CCOC(=O)c1c(CCCOc2cccc3ccccc23)c2cccc3c2n1CC=CCOCc1c-3c(COCc2ccccc2)nn1C (mixture of isomers)
ring closure, yield of all isomers ([1]; from C=CCOCc1c(-c2cccc3c(CCCOc4cccc5ccccc45)c(C(=O)OCC)n(CC=C)c23)c(COCc2ccccc2)nn1C, dichloromethane, 76.8 mM, 25.0 °C, 72.0 h): 74.2%

Compound: CCOC(=O)c1c(CCCOc2cccc3ccccc23)c2cccc3c2n1CC=CCOCc1c-3c(COc2ccc(C3(O)CCOCC3)cc2)nn1C (mixture of isomers)
ring closure, yield of all isomers ([1]; from C=CCOCc1c(-c2cccc3c(CCCOc4cccc5ccccc45)c(C(=O)OCC)n(CC=C)c23)c(COc2ccc(C3(O)CCOCC3)cc2)nn1C, dichloromethane, 80.0 mM, 25.0 °C, 72.0 h): 66.1%

Compound: CCOC(=O)c1c(CCCOc2cccc3ccccc23)c2cccc3c2n1CC=CCOCc1c-3c(COc2ccc(C3(OC)CCOCC3)cc2)nn1C (mixture of isomers)
ring closure, yield of all isomers ([1]; from C=CCOCc1c(-c2cccc3c(CCCOc4cccc5ccccc45)c(C(=O)OCC)n(CC=C)c23)c(COc2ccc(C3(OC)CCOCC3)cc2)nn1C, dichloromethane, 78.4 mM, 25.0 °C, 72.0 h): 39.1%

Compound: CCOC(=O)c1c(CCCOc2cccc3ccccc23)c2cccc3c2n1CC=CCOCc1c-3c(COc2ccc(N3CCOCC3)cc2)nn1C (mixture of isomers)
ring closure, yield of all isomers ([1]; from C=CCOCc1c(-c2cccc3c(CCCOc4cccc5ccccc45)c(C(=O)OCC)n(CC=C)c23)c(COc2ccc(N3CCOCC3)cc2)nn1C, dichloromethane, 39.1 mM, 25.0 °C, 44.0 h): 53.3%

Compound: CCOC(=O)c1c(CCCOc2cccc3ccccc23)c2cccc3c2n1CC=CCOCc1c-3c(COc2ccccc2)nn1C (mixture of isomers)
ring closure, yield of all isomers ([1]; from C=CCOCc1c(-c2cccc3c(CCCOc4cccc5ccccc45)c(C(=O)OCC)n(CC=C)c23)c(COc2ccccc2)nn1C, dichloromethane, 78.3 mM, 25.0 °C, 24.0 h): 56.9%

Compound: CCOC(=O)c1c(CCCOc2cccc3ccccc23)c2cccc3c2n1CC=CCOCc1c-3cnn1C (mixture of isomers)
ring closure, yield of all isomers ([1]; from C=CCOCc1c(-c2cccc3c(CCCOc4cccc5ccccc45)c(C(=O)OCC)n(CC=C)c23)cnn1C, dichloromethane, 78.2 mM, 25.0 °C, 24.0 h): 42.1%

Compound: CCOC(=O)c1c(CCCOc2cccc3ccccc23)c2cccc3c2n1CC=CCOCc1nn(C)c(C)c1-3 (mixture of isomers)
ring closure, yield of all isomers ([1]; from C=CCOCc1nn(C)c(C)c1-c1cccc2c(CCCOc3cccc4ccccc34)c(C(=O)OCC)n(CC=C)c12, dichloromethane, 77.8 mM, 25.0 °C, 16.0 h): 15%

Compound: CCOCc1nn(C)c2c1-c1cccc3c(CCCOc4cccc5ccccc45)c(C(=O)OCC)n(c13)CC=CCOC2 (mixture of isomers)
ring closure, yield of all isomers ([1]; from C=CCOCc1c(-c2cccc3c(CCCOc4cccc5ccccc45)c(C(=O)OCC)n(CC=C)c23)c(COCC)nn1C, dichloromethane, 76.0 mM, 25.0 °C, 24.0 h): 47.3%

EC50 (SUDHL5 [2]): 31.4 µM
IC50 (SUDHL5 [3]): 1.08e-05 M
IC50 (SUDHL10 [5]): 1.4e-05 M
EC50 (SUDHL10 [6]): 18.4 µM
IC50 (MV-4-11): 1.13e-05 M
IC50 (MCL-1): 0.0272 µM
IC50 (A2780): 1.11e-05 M
Compound: Cn1nc(COc2ccc(N3CCOCC3)cc2)c2c1COCC=CCn1c(C(=O)O)c(CCCOc3cccc4ccccc34)c3cccc-2c31 (single isomer, unassigned; enantiomer 2) [Example 120, (−)-(E/Z)-1-methyl-3-{[4-(morpholin-4-yl)phenoxy]methyl}-7-[3-(naphthalen-1-yloxy)propyl]-1,10,13,15-tetrahydropyrazolo[4′,3′:9,10][1,6]oxazacycloundecino[8,7,6-hi]indole-8-carboxylic Acid (Enantiomer 2)]
IC50 (OPM2): 4.36e-06 M
IC50 (SUDHL5 [4]; [8]): 3.21e-05 M
IC50 (SUDHL10 [7]; [9]): > 3.3e-05 M

EC50 (SUDHL5 [2]): 25.9 µM
IC50 (SUDHL5 [3]): 1.17e-05 M
IC50 (SUDHL10 [5]): 1.16e-05 M
EC50 (SUDHL10 [6]): 30.9 µM
IC50 (MV-4-11; Homo sapiens, MV4-11, 72 h): 6.24e-06 M
IC50 (MCL-1): 0.0191 µM
IC50 (A2780): 1.48e-05 M
Compound: CN1CCCn2c(C(=O)O)c(CCCOc3cccc4ccccc34)c3cccc(c32)-c2c(CNCC(F)(F)F)nn(C)c2C1 (single isomer, unassigned; enantiomer 2) [Example 131, 7,9-dimethyl-1-[3-(naphthalen-1-yloxy)propyl]-11-{[(2,2,2-trifluoroethyl)amino]methyl}-4,5,6,7,8,9-hexahydropyrazolo[3′,4′:7,8][1,5]diazecino[9,10,1-hi]indole-2-carboxylic acid-N-ethylethanamine Salt (Enantiomer 2)]
IC50 (OPM2): 1.71e-05 M
IC50 (SUDHL5 [4]; [8]): 1.46e-05 M
IC50 (SUDHL10 [7]; [9]): 2.88e-05 M

EC50 (SUDHL5 [2]; Homo sapiens, SU-DHL-5, 3 h): 12.9 µM
IC50 (SUDHL5 [3]; Homo sapiens, SU-DHL-5, 72 h): 2.67e-06 M
IC50 (SUDHL10 [5]; Homo sapiens, SU-DHL10, 72 h): 5.9e-06 M
EC50 (SUDHL10 [6]; Homo sapiens, SU-DHL10, 3 h): 22.1 µM
IC50 (MV-4-11; Homo sapiens, MV4-11, 72 h): 6.78e-06 M
IC50 (MCL-1): 0.0107 µM
IC50 (A2780; Homo sapiens, A2780, 72 h): > 3.3e-05 M
Compound: Cn1nc(CN2CCOCC2)c2c1COCCCCn1c(C(=O)O)c(CCCOc3cccc4ccccc34)c3cccc-2c31 (single isomer, unassigned; enantiomer 2) [Example 137, 1-methyl-3-(morpholin-4-ylmethyl)-7-[3-(naphthalen-1-yloxy)propyl]-1,10,11,12,13,15-hexahydropyrazolo[4′,3′:9,10][1,6]oxazacycloundecino[8,7,6-hi]indole-8-carboxylic Acid (Enantiomer 2)]
IC50 (OPM2; Homo sapiens, OPM-2, 72 h): > 3.3e-05 M
IC50 (SUDHL5 [4]; Homo sapiens, SU-DHL-5, 5 h, read-out: Cytotox SUDHL5 [M] (median), SUDHL5 cells, cytotoxicity induction, CellTiter-Glo, 5 h incubation, median): 8.98e-06 M
IC50 (SUDHL10 [7]; Homo sapiens, SU-DHL10, 5 h, read-out: Cytotox SUDHL10 [M] (median), SUDHL10 cells, cytotoxicity induction, CellTiter-Glo, 5 h incubation, median): 3.06e-05 M
